Reference: paper PMC10541198, “Specific quinone reductase 2 inhibitors reduce metabolic burden and reverse Alzheimer’s disease phenotype in mice” (The Journal of Clinical Investigation, 2023)
Values joined by “and” are separate entries in the source; they are usually repeats but may differ in a detail not shown here. Equal entries are not always repeated.

Tests used:
4-HNE = test: Immunoblot of 4-HNE 3 hours after CA1 microinjection; assay type: in vivo, mouse
Description: In order to evaluate the efficacy of some of the leading QR2is in vivo, we carried out double-blind experiments using 2 different modalities (Supplemental Methods), measuring memory that is dependent on different brain areas. First, cortical memory was tested using incidental novel taste learning (see Methods), in which an unfamiliar, but palatable and safe, taste is given for the first time, and the memory for this newly learned taste is then assessed 2 days later. This is done by measuring the volume of the taste consumed upon subsequent exposure to it ([32]) (Figure 4A). […] Next, hippocampal-dependent learning was evaluated using delay fear conditioning (DFC; see Methods) ([33]). Mice were cannulated to the CA1 region of the hippocampus and were microinjected with YB-537 (1 μL of 5 μM, Figure 4, D and H) or vehicle. […] In order to evaluate any possible effect of acute QR2i microinjection on metabolic stress in the mouse brain, ISR activation was measured by quantifying total and phosphorylated eukaryotic initiation factor 2 α (eIF2α) levels (Supplemental Figure 3A) and lipid peroxidation product, 4-hydroxynonenal (4-HNE; Supplemental Figure 3B), by immunoblot 3 hours after the injection. […]

QR2 = test: Immunoblot of QR2 in HCT116 cells after 4-day treatment; assay type: cell-based, human; conditions: 2 μM, 4 days; for QR2 expression, mean ± SEM (vehicle = 1): HCT116, n=6
Description: To establish direct target engagement and cell membrane permeability, a cellular thermal shift assay (CETSA) was carried out, using leading QR2is YB’s-537, 800, and 808. Following a 1 hour preincubation with 5 μM of the QR2is or vehicle, thermal aggregation curves (Taggs) of QR2 expressed in HEK293T were measured in increasing temperatures. All QR2is increased QR2 thermal stability compared with vehicle (Supplemental Figure 2A). Based on the Tagg curves we selected 73°C for isothermal dose-response fingerprint (IDTRF) experiments (Supplemental Figure 2B). The ITDRF allowed the relative quantification of the binding of each of the QR2is to QR2, measured as the EC50 (Figure 3A). […] We evaluated the safety of the QR2is using cell toxicity and viability assays. […] Cell viability was assessed by XTT assay in HEK239T cells, using a dose response, with 3- or 24-hour incubations of the leading QR2is. No sign of toxicity was seen (Figure 3C). Next, we wanted to assess if, similar to QR2 KO, QR2is can reduce cellular ROS in HCT116 cells and see whether any observable effect is occluded in QR2Δ cells. […] We then assessed WT HCT116 cells by immunoblot (Supplemental Figure 2, C and D), after being treated with YB-800 (2 μM) for 4 consecutive days.
H2DCFDA ROS assay was carried out according to established protocols, with some adjustment (Supplemental Methods) ([6]). Cell toxicity was measured via ATP depletion (CellTiter Glo, Promega) in THLE-2 cells (ATCC, CRL-2706), following 72 hours of exposure to the test compounds, and cell viability was assessed using XTT assay (Biological Industries) according to manufacturers protocols. […]
(Ser51) eIF2α (1:1000, Cell Signaling, 9721), diluted in blocking buffer. The ne xt day, the m em br anes w e re washed three times in TBST and incubated at room temperature (RT) for 1 h with 1:10,000 secondary antibodies conjugated to horseradish peroxidase, and following a further t hr e e times washes in TBSTwere immunoblotted with Westar Supernova (Cyanagen), imaged using a charge-coupled device camera and analyzed using Quantity One software (Bio-Rad). […]

| Structure (SMILES) | 4-HNE levels (4-HNE; 3 hours after microinjection in the mouse hippocampus) | Sup. Fig. 3B, immunoblot signal (4-HNE; individual animals) | QR2 expression (replicates) (QR2; HCT116) | QR2 expression, mean ± SEM (vehicle = 1) (QR2) | QR2 expression, mean ± SEM (vehicle = 1) (QR2; listed as NG800) |
| --- | --- | --- | --- | --- | --- |
| Cc1ccc(-c2cn3cccc(C)c3n2)cc1S(=O)(=O)N1CCNCC1 [YB-537] | insignificant reduction | 1.944 and 1.965 and 2.545 and 1.185 and 0.887 and 2.092 and 2.161 |  |  |  |
| Cc1ccc(-c2cn3cccc(C)c3n2)cc1S(=O)(=O)N1CCC(C)CC1 [YB-800] |  |  | 1.514 and 1.125 and 1.62 and 0.8886 and 0.7618 and 1.183 | unchanged | 1.182 ± 0.137 |
